Columns and labels:
[1] = system: primary neuronal granule cell cultures from Hq mutant mice; details: 20 and 50 mM hydrogen peroxide, 5 hours, PI staining
Procedure: To determine if decrease in AIF levels leads to increased sensitivity to exogenous peroxides, primary neuronal granule cell cultures from Hq mutant mice were treated with increasing doses of hydrogen peroxide (0, 5, 20, 50 mM) for 5 hours and then stained with propidium iodide (PI) to identify apoptotic cells.

[2] = system: mutant and wildtype embryonic cortical cells; details: hydrogen peroxide for 24 hours, any peroxide concentration
Procedure: To determine if increased peroxide sensitivity due to loss of wild-type levels of AIF is cell-specific, primary cultures of mutant and wildtype embryonic cortical cells were treated under the identical conditions used for granule cell cultures.

[3] = system: primary neuronal granule cell cultures from Hq mutant mice; assay: Glutamate sensitivity of primary granule cell cultures; type: cell-based, mouse; design: unit of the concentration uncertain
Text: Low doses of glutamate cause neuronal excitotoxicity via NMDA receptors, while higher doses of glutamate trigger intracellular oxidative stress through the release of endogenous peroxides.

[4] = system: Hq mutant and wild type granule cells; design: dose or concentration left out as unconfirmed; details: 24 hours

OO [hydrogen peroxide]
cell death, Hq mutant versus wild-type cultures [1]: Significantly more cell death
viability, mutant versus wild type cortical cells [2]: no difference in viability

N[C@@H](CCC(=O)O)C(=O)O [glutamate]
Hq mutant granule cell death ([3]; higher doses of glutamate (2000 (unit uncertain))): significant increases in Hq mutant granule cell death
cell viability, mutant versus wild type granule cells ([3]; low concentrations of glutamate (100 (unit uncertain))): Cell viability was similar

CN[C@@H]1C[C@H]2O[C@@](C)([C@@H]1OC)n1c3ccccc3c3c4c(c5c6ccccc6n2c5c31)C(=O)NC4 [staurosporine]
cell death, Hq mutant versus wild type granule cells [4]: no significant difference in cell death

COc1cc([C@@H]2c3cc4c(cc3[C@@H](O[C@@H]3O[C@@H]5CO[C@@H](C)O[C@H]5[C@H](O)[C@H]3O)[C@H]3COC(=O)[C@H]23)OCO4)cc(OC)c1O [etoposide]
cell death, Hq mutant versus wild type granule cells [4]: no significant difference in cell death

— US20030228581A1, “Diagnosis and treatment for late onset neurodegenerative disorder” (priority 2002, published 2003)
